Test results from patent US20240381872A1, “SUBSTITUTED 2,3-DIHYDRO[1,3]THIAZOLO[4,5-B]PYRIDINES, SALTS THEREOF AND THEIR USE AS HERBICIDALLY ACTIVE SUBSTANCES” (BAYER AKTIENGESELLSCHAFT, priority 2021, published 2024).

What was measured:
Type in all cases: in vivo
[1] = tested on: Echinochloa crus-galli (ECHCG); test: Herbicidal post-emergence action, section B (Table B3); conditions: application rate 1280 g/ha, rated visually after about 3 weeks
Procedure: (§1) Seeds of mono- and dicotyledonous weed plants were placed in plastic pots in sandy loam soil (doubly sown with in each case one species of mono- or dicotyledonous weed plants per pot), covered with soil and cultivated in a greenhouse under controlled growth conditions. 2 to 3 weeks after sowing, the test plants were treated at the one-leaf stage. The compounds of the invention, formulated in the form of wettable powders (WP) or as emulsion concentrates (EC), were applied onto the green parts of the plants as aqueous suspension or emulsion with addition of 0.5% additive at a water application rate of 600 liters per hectare (converted). After the test plants had been kept in the greenhouse under optimum growth conditions for about 3 weeks, the activity of the preparations was rated visually in comparison to untreated controls. For example, 100% activity=the plants have died, 0% activity=like control plants.

Poa annua (POAAN) [2] = test: Herbicidal post-emergence action, section B (Table B7); conditions: Poa annua, post-emergence, 504 h; application rate 320 g/ha; visual rating about 3 weeks after treatment vs untreated controls; read-out: post-emergence activity against POAAN in %
How it was run: (§2)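 Potted weeds in sandy loam are treated post-emergence at the one-leaf stage, 2 to 3 weeks after sowing. The spray is an aqueous WP or EC preparation with 0.5% additive at 600 liters per hectare. Percent activity is assessed by eye after about 3 weeks versus untreated controls.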

[3] = tested on: Echinochloa crus-galli (ECHCG); test: Herbicidal pre-emergence action, section A (Table A3); conditions: application rate 320 g/ha, visual grading after ca. 3 weeks vs untreated controls
How it was run: (§3)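 Compounds are applied pre-emergence to the soil covering freshly sown seeds in sandy loam, as WP or EC in water with 0.5% additive at a spray volume of 600 l/ha. Plants grow in the greenhouse, and percent damage is rated visually after roughly 3 weeks relative to untreated controls.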

Veronica persica (VERPE) [4] = test: Herbicidal post-emergence action, section B (Table B10); conditions: Veronica persica, post-emergence, 504 h; application rate 320 g/ha; visual rating about 3 weeks after treatment vs untreated controls; read-out: post-emergence activity against VERPE in %
How it was run: as §2

Setaria viridis (SETVI) [5] = test: Herbicidal pre-emergence action, section A (Table A8)
How it was run: as §3

Kochia scoparia (KCHSC) [6] = test: Herbicidal post-emergence action, section B (Table B4); conditions: Bassia scoparia, post-emergence, 504 h; application rate 320 g/ha; visual rating about 3 weeks after treatment vs untreated controls; read-out: post-emergence activity against KCHSC in %
How it was run: as §2

Lolium rigidum (LOLRI) [7] = test: Herbicidal post-emergence action, section B (Table B5); conditions: application rate 1280 g/ha, visual rating about 3 weeks after treatment vs untreated controls
Procedure: as §1

[8] = tested on: Digitaria sanguinalis (DIGSA); test: Herbicidal pre-emergence action, section A (Table A12); conditions: application rate 320 g/ha
How it was run: as §3

Stellaria media (STEME) [9] = test: Herbicidal post-emergence action, section B (Table B9); conditions: application rate 320 g/ha, visual rating about 3 weeks after treatment vs untreated controls
How it was run: as §2

Setaria viridis (SETVI) [10] = test: Herbicidal post-emergence action, section B (Table B8); conditions: Setaria viridis, post-emergence, 504 h; application rate 1280 g/ha; visual rating about 3 weeks after treatment vs untreated controls; read-out: post-emergence activity against SETVI in %
Procedure: as §1

[11] = tested on: Abutilon theophrasti (ABUTH); test: Herbicidal post-emergence action, section B (Table B1); conditions: Abutilon theophrasti, 504 h, application rate 1280 g/ha, rated visually after about 3 weeks, read-out: post-emergence activity against ABUTH in %
Procedure: as §1

[12] = tested on: Amaranthus retroflexus (AMARE); test: Herbicidal post-emergence action, section B (Table B11); conditions: visual rating about 3 weeks after treatment vs untreated controls
How it was run: as §2

[13] = tested on: Matricaria inodora (MATIN); test: Herbicidal pre-emergence action, section A (Table A6); conditions: application rate 1280 g/ha, visual grading after ca. 3 weeks vs untreated controls
How it was run: as §3

[14] = tested on: Amaranthus retroflexus (AMARE); test: Herbicidal pre-emergence action, section A (Table A11)
How it was run: as §3

Poa annua (POAAN) [15] = test: Herbicidal pre-emergence action, section A (Table A7); conditions: visual grading after ca. 3 weeks vs untreated controls
How it was run: as §3

Kochia scoparia (KCHSC) [16] = test: Herbicidal pre-emergence action, section A (Table A4); conditions: visual grading after ca. 3 weeks vs untreated controls
How it was run: as §3

[17] = tested on: Digitaria sanguinalis (DIGSA); test: Herbicidal post-emergence action, section B (Table B12); conditions: Digitaria sanguinalis, post-emergence, 504 h; application rate 1280 g/ha; visual rating about 3 weeks after treatment vs untreated controls; read-out: post-emergence activity against DIGSA in %
Procedure: as §1

Lolium rigidum (LOLRI) [18] = test: Herbicidal pre-emergence action, section A (Table A5); conditions: visual grading after ca. 3 weeks vs untreated controls
How it was run: as §3

Veronica persica (VERPE) [19] = test: Herbicidal pre-emergence action, section A (Table A10); conditions: application rate 1280 g/ha
How it was run: as §3

Stellaria media (STEME) [20] = test: Herbicidal pre-emergence action, section A (Table A9); conditions: application rate 320 g/ha
How it was run: as §3

[21] = tested on: Alopecurus myosuroides (ALOMY); test: Herbicidal pre-emergence action, section A (Table A2); conditions: application rate 1280 g/ha; visual grading after ca. 3 weeks vs untreated controls
Excerpt: Seeds of mono- and dicotyledonous weed plants were sown in plastic pots (double sowings with one species of mono- and one species of dicotyledonous weed plants per pot), in sandy loam, and covered with soil. The compounds according to the invention, formulated in the form of wettable powders (WP) or as emulsifiable concentrates (EC), were applied to the surface of the covering soil as aqueous suspension or emulsion, with the addition of 0.5% of an additive, at an application rate of 600 l of water per hectare (converted). Following treatment, the pots were placed in a greenhouse and kept under optimum growth conditions for the test plants. The visual grading of the damage to the test plants was carried out after ca. 3 weeks in comparison to untreated controls (herbicidal effect in percent (%): 100% effect=plants have died off, 0% effect=as control plants).

NB1OB(N2CSc3cc(Br)c(-c4ccccc4Cl)nc32)O1 [Example I-048, 4-[6-bromo-5-(2-chlorophenyl)-2,3-dihydro[1,3]thiazolo[4,5-b]pyridin-3(2H)-yl]-1,3,2,4-dioxa-diboretan-2-amine]
pest or weed control at 1280 g/ha ([1]; Echinochloa crus-galli, 504 h, read-out: post-emergence activity against ECHCG in %): 90% | pest or weed control at 320 g/ha (Poa annua (POAAN) [2]): 90% | pest or weed control at 320 g/ha ([3]; Echinochloa crus-galli, pre-emergence, 504 h, read-out: pre-emergence activity against ECHCG in %): 100% | pest or weed control at 320 g/ha (Veronica persica (VERPE) [4]): 90% | pest or weed control at 1280 g/ha (Setaria viridis (SETVI) [5]; Setaria viridis, 504 h, application rate 1280 g/ha, read-out: pre-emergence activity against SETVI in %): 100% | pest or weed control at 320 g/ha (Kochia scoparia (KCHSC) [6]): 90% | pest or weed control at 1280 g/ha (Lolium rigidum (LOLRI) [7]; Lolium rigidum, post-emergence, 504 h, read-out: post-emergence activity against LOLRI in %): 90% | pest or weed control at 320 g/ha ([8]; Digitaria sanguinalis, 504 h, read-out: pre-emergence activity against DIGSA in %): 100% | pest or weed control at 320 g/ha (Stellaria media (STEME) [9]; Stellaria media, post-emergence, 504 h, read-out: post-emergence activity against STEME in %): 90% | pest or weed control at 1280 g/ha (Setaria viridis (SETVI) [10]): 90% | pest or weed control at 1280 g/ha [11]: 90% | pest or weed control at 320 g/ha ([12]; Amaranthus retroflexus, post-emergence, 504 h, application rate 320 g/ha, read-out: post-emergence activity against AMARE in %): 90% | pest or weed control at 1280 g/ha ([13]; Tripleurospermum inodorum, pre-emergence, 504 h, read-out: pre-emergence activity against MATIN in %): 90% | pest or weed control at 1280 g/ha ([14]; Amaranthus retroflexus, 504 h, application rate 1280 g/ha, read-out: pre-emergence activity against AMARE in %): 90% | pest or weed control at 1280 g/ha (Poa annua (POAAN) [15]; Poa annua, pre-emergence, 504 h, application rate 1280 g/ha, read-out: pre-emergence activity against POAAN in %): 100% | pest or weed control at 1280 g/ha (Kochia scoparia (KCHSC) [16]; Bassia scoparia, pre-emergence, 504 h, application rate 1280 g/ha, read-out: pre-emergence activity against KCHSC in %): 90% | pest or weed control at 1280 g/ha [17]: 90% | pest or weed control at 1280 g/ha (Lolium rigidum (LOLRI) [18]; Lolium rigidum, pre-emergence, 504 h, application rate 1280 g/ha, read-out: pre-emergence activity against LOLRI in %): 100%

Cc1cc2c(nc1-c1cccc(F)c1F)N(C(=O)C13CCCC1C(Cl)=NO3)CS2 (stereo not drawn) [Example I-156]
post-emergence activity against ECHCG in % [1]: 90% | pre-emergence activity against ECHCG in % [3]: 90% | pre-emergence activity against SETVI in % (Setaria viridis (SETVI) [5]; application rate 320 g/ha): 100% | post-emergence activity against LOLRI in % (Lolium rigidum (LOLRI) [7]): 90% | pre-emergence activity against DIGSA in % [8]: 90% | post-emergence activity against STEME in % (Stellaria media (STEME) [9]): 90% | pre-emergence activity against VERPE in % (Veronica persica (VERPE) [19]): 90% | post-emergence activity against AMARE in % ([12]; application rate 1280 g/ha): 90% | pre-emergence activity against STEME in % (Stellaria media (STEME) [20]): 90% | pre-emergence activity against MATIN in % [13]: 90% | pre-emergence activity against AMARE in % ([14]; application rate 320 g/ha): 90% | pre-emergence activity against POAAN in % (Poa annua (POAAN) [15]; application rate 320 g/ha): 100% | pre-emergence activity against KCHSC in % (Kochia scoparia (KCHSC) [16]; application rate 320 g/ha): 90% | pre-emergence activity against ALOMY in % [21]: 90% | pre-emergence activity against LOLRI in % (Lolium rigidum (LOLRI) [18]; application rate 320 g/ha): 90%
